Experimental data as given in patent US5223169A, “Hydrolase surfactant systems and their use in laundering” (priority 1991, dated 1993).

Experiments:
Test in all cases: pH-stat assay of triglyceride emulsion hydrolysis; critical oil-to-surfactant ratio
[1] = tested on: enzyme from P. putida ATCC 53552 (lipase GC-1065); format: biochemical, Pseudomonas putida; conditions: for Enzyme Activity (initial rate of hydrolysis): enzyme 2 ppm; for Specific Activity determined from initial rates, GC-1065, High / Critical Ratio, GC-1065, High / Critical Ratio, GC-1065, Low / Specific Activity determined from initial rates, GC-1065, Low: trioctanoin emulsions; for Specific Activity determined from initial rates, GC-1065, High: high surfactant conc. as E41; for Critical Ratio, GC-1065, High / Critical Ratio, GC-1065, Low: lipase ~2 ppm; for Critical Ratio, GC-1065, High: high surfactant conc.: SDS 10 mM, Neodol 25-3S 10 mM, Surfonic JL-80X 5 mM, Triton X-100 10 mM, C16 DAPS 10 mM; for Critical Ratio, GC-1065, Low: low surfactant conc.: SDS 2 mM, Triton X-100 2 mM, C16 DAPS 0.5 mM; for Specific Activity determined from initial rates, GC-1065, Low: low surfactant conc. as E40
Source text: (§1) To determine the critical ratio for any specific enzyme-surfactant combination, aliquots of an aqueous solution, each containing a determined (constant) amount of the enzyme which is effective in the absence of any surfactant to hydrolyze the triglycerides in an oily stain on a determined (constant) amount of a fabric soiled by a determined (constant) amount of a triglyceride oil, are mixed with a determined (constant) amount of a surfactant which is within the range of the amounts conventionally present in home laundry solutions, e.g., from about 0.2 to 1.5. mM, and which is effective to inhibit the hydrolyzing activity of the enzyme. To the aliquots are added a hydrolysis activator, e.g., trioctanoin, in increasing amounts and the hydrolyzing activity of the enzyme in the various solutions is determined.
(§2) The experiments determining enzyme activity, such as those set out in Tables IA and IB, were carried out as follows:
(§3) The desired amount of triglyceride was weighed into an appropriate size beaker, on a Mettler balance (model number AE163). The corresponding amount of surfactant was added to the triglyceride, from a previously prepared aqueous surfactant stock solution, and the triglyceride and surfactant mixed manually. The sample was then adjusted to the desired weight using doubly distilled H2 O. Emulsification of the sample was carried out, prior to assaying enzyme activity, with a probe sonicator (Braun-Sonic model 2000), on ice, for approx. 2 minutes.
(§4) (ii) Enzyme Activity Measurement:
(§5) This was achieved by monitoring the rate of acid liberation, from the enzymatic hydrolysis of the triglycerides in the emulsion. The assay was initiated by adding approx. 2 ppm lipase to 10 ml of the prepared emulsion. The acid liberated was monitored by autotitration, on a Radiometer pH-stat (model number ABU80) to an endpoint of a pH of 10. Initial rates were recorded for the first 5 minutes of the reaction, and the reaction rates reported as μmole H^+ titrated . min ^-1 mgE^-1. Occasionally enzyme activity is reported as % total oil hydrolyzed in 14 min. In these examples, the reaction was allowed to run for 14 min. and the amount of acid titrated recorded. The % total oil (triglyceride) hydrolyzed was then calculated by dividing the recorded value with the theoretically calculated value assuming three equivalents of oleic acid was produced for each triglyceride equivalent. All assays were run at ambient temperatures.

Enzyme Amano P = biological target: T1, Enzyme Amano P (Burkholderia cepacia, UniProt P22088); format: biochemical, P. fluorescens
T1 construct: purchased Amano Co
Source text: as §1, §2, §3, §4, §5

Enzyme Amano 68S = format: biochemical, P. sp.; conditions: for Critical Ratio / Enzyme Activity: surfactant conc.: SDS 1 mM
Source text: as §1, §2, §3, §4, §5

[2] = C12 LAS 1 mM, Neodol 25-9 0.5 mM, Neodol 25-3S 2 mM, Surfonic JL-80X 0.5 mM
[3] = Table II, trioctanoin, surfactant conc.: SDS 2 mM, C12 LAS 1 mM, Neodol 25-3S 2 mM, Neodol 25-9 0.5 mM, Surfonic JL80X 0.5 mM, Triton X100 2 mM
[4] = Table Summary, second block of lines (corresponds to triolein Tables VI-IX)
[5] = Table VI, triolein, surfactant conc.: SDS 1 mM, C12 LAS 0.5 mM, Neodol 25-3S 1 mM, Neodol 25-9 0.5 mM, Surfonic JL80X 0.5 mM
[6] = triolein emulsions, high conc.: SDS 10 mM, C12 LAS 5 mM, Neodol 25-9 5 mM, Neodol 25-3S 5 mM, Surfonic JL-80X 2.5 mM
[7] = Table III, trioctanoin, surfactant conc.: SDS 2 mM, C12 LAS 1 mM, Neodol 25-3S 2 mM, Neodol 25-9 0.5 mM, Surfonic JL80X 0.5 mM
[8] = Table VII, triolein, surfactant conc.: SDS 1 mM, others 0.5 mM
[9] = Table IV, trioctanoin, C12 LAS 0.2 mM, Neodol 25-3S 0.5 mM, Neodol 25-9 0.5 mM, Surfonic JL80X 0.5 mM
[10] = Table VIII, triolein, C12 LAS 0.5 mM, Neodol 25-3S 0.5 mM, Neodol 25-9 0.5 mM, Surfonic JL80X 2.5 mM

T1 sequence (P22088 45-364): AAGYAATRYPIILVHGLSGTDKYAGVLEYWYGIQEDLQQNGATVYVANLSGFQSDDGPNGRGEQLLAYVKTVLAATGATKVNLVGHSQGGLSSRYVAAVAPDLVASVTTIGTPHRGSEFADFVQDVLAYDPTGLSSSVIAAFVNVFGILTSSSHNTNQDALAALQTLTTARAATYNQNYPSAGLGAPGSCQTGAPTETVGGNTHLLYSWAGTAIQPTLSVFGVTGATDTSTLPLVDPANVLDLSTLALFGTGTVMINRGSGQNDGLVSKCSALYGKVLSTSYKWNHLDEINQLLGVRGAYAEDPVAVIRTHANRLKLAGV

CCCCCCCCCCCCCCCC[N+](C)(C)CCCS(=O)(=O)[O-] [C16 DAPS]
Enzyme Activity (initial rate of hydrolysis) ([1]; trioctanoin 0.5 mM, surfactant 0.5 mM, system ratio 1): 0 μmole H^+ released min^-1 mgE^ | Enzyme Activity (initial rate of hydrolysis) ([1]; trioctanoin 2.5 mM, surfactant 0.5 mM, system ratio 5): 0 μmole H^+ released min^-1 mgE^ | Enzyme Activity (initial rate of hydrolysis) ([1]; trioctanoin 5 mM, surfactant 0.5 mM, system ratio 10): 0 μmole H^+ released min^-1 mgE^ | Enzyme Activity (initial rate of hydrolysis) ([1]; trioctanoin 10 mM, surfactant 0.5 mM, system ratio 20): 334 μmole H^+ released min^-1 mgE^ | Enzyme Activity (initial rate of hydrolysis) ([1]; trioctanoin 10 mM, surfactant 10 mM, system ratio 1): 0 μmole H^+ released min^-1 mgE^ | Enzyme Activity (initial rate of hydrolysis) ([1]; trioctanoin 15 mM, surfactant 0.5 mM, system ratio 30): 405 μmole H^+ released min^-1 mgE^ | Enzyme Activity (initial rate of hydrolysis) ([1]; trioctanoin 20 mM, surfactant 0.5 mM, system ratio 40): 370 μmole H^+ released min^-1 mgE^ | Enzyme Activity (initial rate of hydrolysis) ([1]; trioctanoin 50 mM, surfactant 10 mM, system ratio 5): 0 μmole H^+ released min^-1 mgE^ | Enzyme Activity (initial rate of hydrolysis) ([1]; trioctanoin 200 mM, surfactant 10 mM, system ratio 20): 398 μmole H^+ released min^-1 mgE^ | Enzyme Activity (initial rate of hydrolysis) ([1]; trioctanoin 300 mM, surfactant 10 mM, system ratio 30): 370 μmole H^+ released min^-1 mgE^ | Enzyme Activity (initial rate of hydrolysis) ([1]; trioctanoin 400 mM, surfactant 10 mM, system ratio 40): 417 μmole H^+ released min^-1 mgE^ | critical ratio (system ratio of oil to surfactant at which enzymatic activity begins) ([1]; trioctanoin as oil, surfactant 0.5 and 10 mM (Table IA)): 10-20 | Specific Activity determined from initial rates, GC-1065, High [1]: 450 μeq acid/min.mg | Critical Ratio, GC-1065, High ([1]; C12 LAS 5 mM, Neodol 25-9 5 mM): 10-20 | Critical Ratio, GC-1065, Low [1, 2]: 10-20 | Specific Activity determined from initial rates, GC-1065, Low [1]: 450 μeq acid/min.mg

CCCCCCCCCCCCCCCC [Hexadecane, hexadecane]
Enzyme Activity ([1]; triolein 0.3 mM + hexadecane 1.2 mM, Surfonic JL-80X 0.3 mM, system ratio 5): 8 μmole H^+ released min^-1 mgE^ | Enzyme Activity ([1]; triolein 0.3 mM + hexadecane 1.2 mM, Surfonic JL-80X 0.3 mM, system ratio 5, listed as hexadecane): active | Enzyme Activity (Enzyme Amano P; trioctanoin 5 mm + hexadecane 10 mm, Neodol 25-3S 0.5, system ratio 40): 45 μmole H^+ released min^-1 mgE^

CCCCCCCCCCCC(=O)N(CC)CC [N,N-diethyldodecanamide]
Enzyme Activity ([1]; no trioctanoin, N,N-diethyldodecanamide 10.0 mm, Neodol 25-9 0.5 mm): < 5 μeq of fatty acid produced in 14 minutes | Enzyme Activity ([1]; trioctanoin 2.5 mm, N,N-diethyldodecanamide 2.5 mm, Neodol 25-9 0.5 mm): 5 μeq of fatty acid produced in 14 minutes | Enzyme Activity ([1]; trioctanoin 2.5 mm, N,N-diethyldodecanamide 5.0 mm, Neodol 25-9 0.5 mm): 12 μeq of fatty acid produced in 14 minutes | Enzyme Activity ([1]; trioctanoin 2.5 mm, N,N-diethyldodecanamide 7.5 mm, Neodol 25-9 0.5 mm): 19 μeq of fatty acid produced in 14 minutes

CCCCCCCC/C=C\CCCCCCCC(=O)[O-].[Na+] [Na Oleate, sodium oleate]
Enzyme Activity ([1]; triolein substrate, surfactant 0.3 mM, system ratio 1): 0 μmole H^+ titrated . min ^-1 m | Enzyme Activity ([1]; triolein substrate, surfactant 0.3 mM, system ratio 5): 0 μmole H^+ titrated . min ^-1 m | Enzyme Activity ([1]; triolein substrate, surfactant 0.3 mM, system ratio 10): 0 μmole H^+ titrated . min ^-1 m | Enzyme Activity ([1]; triolein substrate, surfactant 0.3 mM, system ratio 20): 60 μmole H^+ titrated . min ^-1 m | Enzyme Activity ([1]; triolein substrate, surfactant 0.3 mM, system ratio 30): 90 μmole H^+ titrated . min ^-1 m

CCCCCCCCCCCCOS(=O)(=O)[O-].[Na+] [SDS, sodium dodecylsulfate]
Critical Ratio [1, 3]: 0.5-5.0 | Enzyme Activity [1, 3]: 325 μmole H^+ released min^-1 mgE^ | critical ratio class, enzyme From ATCC 53552 [1, 4]: 0 (means a critical ratio of 1.0-10) | Critical Ratio [1, 5]: 5-10 | Enzyme Activity [1, 5]: 60 μmole H^+ released min^-1 mgE^ | Specific Activity determined from initial rates, GC-1065, High [1]: 450 μeq acid/min.mg | Critical Ratio, GC-1065, High ([1]; C12 LAS 5 mM, Neodol 25-9 5 mM): 1-3 | Critical Ratio, GC-1065, Low [1, 2]: 0.5-5.0 | Specific Activity determined from initial rates, GC-1065, Low [1]: 325 μeq acid/min.mg | Activity (specific hydrolysis activity from initial rates), GC-1065, High ([1]; triolein emulsions, high conc. as E55): 50 μeq acid/min./mg | R, critical (minimum activating molar) ratio, GC-1065, High [1, 6]: 1-5 | Activity (specific hydrolysis activity from initial rates), GC-1065, Low ([1]; triolein emulsions, low conc. as E54): 60 μeq acid/min./mg | R, critical (minimum activating molar) ratio, GC-1065, Low ([1]; triolein emulsions, low conc.: SDS 1 mM, C12 LAS 0.5 mM, Neodol 25-9 0.5 mM, Neodol 25-3S 1 mM, Surfonic JL-80X 0.5 mM): 5-10 | Critical Ratio (Enzyme Amano P; [7]): 1-5 | Enzyme Activity (Enzyme Amano P; [7]): 100 μmole H^+ released min^-1 mgE^ | critical ratio class, Amano P (Enzyme Amano P; [4]): 0 (means a critical ratio of 1.0-10) | Critical Ratio (Enzyme Amano P; [8]): 5-10 | Enzyme Activity (Enzyme Amano P; [8]): 160 μmole H^+ released min^-1 mgE^ | Specific Activity determined from initial rates, AMANO P, High (Enzyme Amano P; trioctanoin emulsions, high surfactant conc. as E43): 200 μeq acid/min.mg | Critical Ratio, AMANO P, High (Enzyme Amano P; trioctanoin emulsions, lipase ~2 ppm, high conc.: SDS 10 mM, C12 LAS 5 mM, Neodol 25-9 5 mM, Neodol 25-3S 20 mM, Surfonic JL-80X 5 mM): 5-10 | Critical Ratio, AMANO P, Low (Enzyme Amano P; trioctanoin emulsions, lipase ~2 ppm, low conc.: SDS 2 mM, C12 LAS 1 mM, Neodol 25-9 0.5 mM, Neodol 25-3S 2.0 mM, Surfonic JL-80X 0.5 mM): 1-5 | Specific Activity determined from initial rates, AMANO P, Low (Enzyme Amano P; trioctanoin emulsions, low surfactant conc. as E42): 100 μeq acid/min.mg | Activity (specific hydrolysis activity from initial rates), AMANO P, High (Enzyme Amano P; triolein emulsions, high conc. as E57): 150 μeq acid/min./mg | R, critical (minimum activating molar) ratio, AMANO P, High (Enzyme Amano P; [6]): 5-10 | Activity (specific hydrolysis activity from initial rates), AMANO P, Low (Enzyme Amano P; triolein emulsions, low conc. as E56): 160 μeq acid/min./mg | R, critical (minimum activating molar) ratio, AMANO P, Low (Enzyme Amano P; triolein emulsions, low conc.: SDS 1 mM, others 0.5 mM): 5-10 | Critical Ratio (Enzyme Amano 68S; [9]): 0.1-0.5 | Enzyme Activity (Enzyme Amano 68S; [9]): 400 μmole H^+ released min^-1 mgE^ | critical ratio class, Amano 68S (Enzyme Amano 68S; [4]): 0 (means a critical ratio of 1.0-10) | Critical Ratio (Enzyme Amano 68S; [10]): 1-5 | Enzyme Activity (Enzyme Amano 68S; [10]): 200 μmole H^+ released min^-1 mgE^ | Specific Activity determined from initial rates, AMANO 68S, High (Enzyme Amano 68S; trioctanoin emulsions, high surfactant conc. as E45): 1200 μeq acid/min.mg | Critical Ratio, AMANO 68S, High (Enzyme Amano 68S; trioctanoin emulsions, lipase ~2 ppm, high conc.: SDS 10 mM, C12 LAS 2 mM, Neodol 25-9 5 mM, Neodol 25-3S 10 mM, Surfonic JL-80X 5 mM): 10-15 | Critical Ratio, AMANO 68S, Low (Enzyme Amano 68S; trioctanoin emulsions, lipase ~2 ppm, low conc.: SDS 1 mM, C12 LAS 0.2 mM, Neodol 25-9 0.5 mM, Neodol 25-3S 0.5 mM, Surfonic JL-80X 0.5 mM): 0.1-0.5 | Specific Activity determined from initial rates, AMANO 68S, Low (Enzyme Amano 68S; trioctanoin emulsions, low surfactant conc. as E44): 400 μeq acid/min.mg | Activity (specific hydrolysis activity from initial rates), AMANO 68S, High (Enzyme Amano 68S; triolein emulsions, high conc. as E59): 175 μeq acid/min./mg | R, critical (minimum activating molar) ratio, AMANO 68S, High (Enzyme Amano 68S; triolein emulsions, high conc.: SDS 10 mM, C12 LAS 5 mM, Neodol 25-9 5 mM, Neodol 25-3S 5 mM, Surfonic JL-80X 2.5 mm): 5-10 | Activity (specific hydrolysis activity from initial rates), AMANO 68S, Low (Enzyme Amano 68S; triolein emulsions, low conc. as E58): 200 μeq acid/min./mg | R, critical (minimum activating molar) ratio, AMANO 68S, Low (Enzyme Amano 68S; triolein emulsions, low conc.: SDS 1 mM, C12 LAS 0.5 mM, Neodol 25-9 0.5 mM, Neodol 25-3S 0.5 mM, Surfonic JL-80X 2.5 mM): 1-5

Triton X-100
Critical Ratio [1, 3]: 10-15 | Enzyme Activity [1, 3]: 450 μmole H^+ released min^-1 mgE^ | Specific Activity determined from initial rates, GC-1065, High [1]: 400 μeq acid/min.mg | Critical Ratio, GC-1065, High ([1]; C12 LAS 5 mM, Neodol 25-9 5 mM): 15-20 | Critical Ratio, GC-1065, Low [1, 2]: 10-15 | Specific Activity determined from initial rates, GC-1065, Low [1]: 450 μeq acid/min.mg
